Consider 1 compound from patent US20150299061A1, “FERTILISER COMPOSITION” (priority 2012, published 2015).

Structures are written as SMILES. Marks after values point to notes of the source that are not given here.

This test deals with grazed pasture. The test is described as follows: Field trial on grazed pasture: pasture shoot dry matter from two cuts after treatment application. Type of test: in vivo. The arrangement: Mean Difference vs C (control) / Mean Difference vs UG-20 / Mean Difference vs UG-20 + GA-10 / Mean Difference vs UG-20 + GA-30 / Mean Difference vs UG-20 + GA-60 / Mean Difference vs UL-20 / Mean Difference vs UL-20 + GA-20 / Mean Difference (Control minus treatment): unit not given here. On the procedure: The trial was carried out with a total of eight treatments. The eight treatment groups were • 1. Control—negative control (no nitrogen or gibberellic acid), • 2. GA-20—gibberellic acid positive control (gibberellic acid applied at 20 g/ha), • 3. UG-20—granular urea positive control (granular urea applied at a rate of 20 kg N/ha, • 4. UG-20+GA-10—10 g/ha gibberellic acid-coated urea granules (granular urea-20 coated with gibberellic acid to apply gibberellic acid at a rate of 10 g/ha), • 5. UG-20+GA-30—30 g/ha gibberellic acid-coated urea granules (granular urea-20 coated with gibberellic acid to apply gibberellic acid at a rate of 30 g/ha), and • 6. UG-20+GA-60—60 g/ha gibberellic acid-coated urea granules (granular urea-20 coated with gibberellic acid to apply gibberellic acid at a rate of 60 g/ha). • 7. UL-20—liquid urea positive control (liquid urea applied at a rate of 20 kg N/ha [with total liquid volume of 200 L/ha]), and 8. UL-20+GA-20—liquid urea and gibberellic acid positive control (liquid urea applied at a rate of 20 kg N/ha with gibberellic acid applied at a rate of 20 g/ha).
The trial was performed with four repetitions per treatment group on a plot with an area of 2 m^2×2 m^2 at locations in Whangarei, Matamata, Lincoln, Ashburton, and Southland.
The treatments were applied on grazed pasture. All experimental sites were fenced off four months prior to treatment application to avoid nitrogen inputs from grazing animals and fertiliser application. At each site, four blocks separated by a 1 m buffer were established. Each block contained eight small plots (each plot of 2m^2×2m^2) separated by a 1 m buffer zone to give a total of 32 plots.
The above eight treatments were applied in mid August 2011. Before treatments application, four composite soil samples (0-10 cm soil depth), were collected for key soil properties (i.e. soil pH, organic C &N, Olsen P, K, Ca, Mg, CEC, base saturation and MAF quick test). Each composite soil sample composed of 10 randomly collected soil samples from each block. Pastures from each plot were cut at 4 to 5 cm height using a lawn mower at appropriate times (preferably after every 21 days) to simulate rotational grazing practices. Bulk fresh pasture weight for each plot was recorded. Before mowing pastures from each plot, four small randomly picked pasture samples from each plot were cut using a pair of scissors. Fresh pastures were transferred to sealable plastic bags and were kept in a chilly bin. Fresh pastures from each plastic bag were then be transferred to a pre-weighed paper bag, weighed (at least 2 decimal balance), and dried at 60 to 70° C. for one week. After one week of drying, dry pasture weight was recorded to determine pasture moisture content.
In the case of liquid treatments, these were all applied at a rate of 200 L/ha.
The effectiveness of the treatments was measured by comparing the pasture shoot dry matter from two cuts after treatment application. The first cut was made on 26 Sep. 2011 and the second cut made on 12 Oct. 2011.
The pairwise comparisons were calculated using Fisher's least significant difference (LSD) with P=0.05.

With `C=C1C[C@]23C[C@@]1(O)CC[C@H]2[C@@]12C=C[C@H](O)[C@@](C)(C(=O)O1)[C@H]2[C@@H]3C(=O)O` [GA-20 only, gibberellic acid], the “Cumulative mean pasture dry matter” value (mean for the five treatment areas (Whangarei, Matamata, Lincoln, Ashburton, Southland), two cuts after treatment) came to 3038.7. Besides, the “Mean Difference (Control minus treatment)” value (pairwise comparison of Table 1 means, Fisher's LSD P=0.05, Control is first treatment, labelled treatment is subtracted) is on record as −757.857*. For the same compound, the “Mean Difference vs C (control)” value (pairwise comparison, Fisher's LSD P=0.05, treatment minus C) is recorded as 757.857*. Moreover, where the note is “pairwise comparison, Fisher's LSD P=0.05, treatment minus UG-20”, the “Mean Difference vs UG-20” value worked out at 56.321. In addition, the “Mean Difference vs UG-20 + GA-10” value (pairwise comparison, Fisher's LSD P=0.05, treatment minus UG-20 + GA-10) is given as −91.281. Also, for the setting “pairwise comparison, Fisher's LSD P=0.05, treatment minus UG-20 + GA-30”, the “Mean Difference vs UG-20 + GA-30” value is −427.001*. Further, the “Mean Difference vs UG-20 + GA-60” value (pairwise comparison, Fisher's LSD P=0.05, treatment minus UG-20 + GA-60) is listed as −381.674*. Moreover, where the note is “pairwise comparison, Fisher's LSD P=0.05, treatment minus UL-20”, the “Mean Difference vs UL-20” value is listed as −141.578. For the same compound, the “Mean Difference vs UL-20 + GA-20” value (pairwise comparison, Fisher's LSD P=0.05, treatment minus UL-20 + GA-20) is −423.846*.
